In patent US20190271703A1, “BIOMARKERS AND TREATMENTS FOR METASTATIC CANCER” (DUKE UNIVERSITY, priority 2016, published 2019):

Tested on: Pro-N-cadherin-positive and pro-N-cadherin-negative SUM159 sorted cells
Experiment: Clonogenic assay on pro-N-cadherin-sorted cells
Type: cell-based
Conditions: docetaxel 50, 75, 100, 150 nM for 48 h; pro-N-cadherin positive vs negative population
Experimental: Pro-N-cadherin-positive and pro-N-cadherin-negative SUM159 sorted cells were exposed to the indicated docetaxel concentrations and surviving fraction was determined in a clonogenic assay. Mean# colonies from three wells (+/−SEM) was determined for each cell population.
Pro-N-cadherin-positive and Pro-N-cadherin-negative populations were sorted from untreated SUM159 cells, seeded into 6 well plates ([…]) at varying cell densities, and incubated at 37° C., 5% C02 overnight. The next day, culture medium was removed and treatments were added [no treatment, Docetaxel (50 nM, 75 nM, 100 nM and 150 nM]. After 48 h, treatments were removed, cells were washed with HBSS, and fresh culture medium (lacking drug) was added. Every three days, culture medium was changed and plates were examined for colony formation. To stain colonies, plates were fixed in 10% Acetone/10% Methanol solution for 10 min. Colonies were stained with 2% Crystal Violet for 30 minutes. The plates are then washed with water and allowed to air dry. Plates were imaged on GelCount and colonies were counted with Image J.

In the case of `CC(=O)O[C@@]12CO[C@@H]1C[C@H](O)[C@@]1(C)C(=O)[C@H](O)C3=C(C)[C@@H](OC(=O)[C@H](O)[C@@H](NC(=O)OC(C)(C)C)c4ccccc4)C[C@@](O)([C@@H](OC(=O)c4ccccc4)[C@H]21)C3(C)C` [docetaxel], the “surviving fraction (relative resistance of sorted populations)” value was “significantly more resistant”.
